Earlier results on 1 compound are cited in US11857524B2, “Stable oral suspensions of baclofen” (ANI Pharmaceuticals, Inc., priority 2021, dated 2024).

Where two headings read alike, the source gives them in different places.

Consider `NCC(CC(=O)O)c1ccc(Cl)cc1` (stereo not drawn) [Baclofen, 4-amino-3-(4-chlorophenyl)-butanoic acid], for which the Solubility result is listed as “insoluble” (in chloroform), “very slightly soluble” (in methanol) and “slightly soluble” (in water).
